Source: ChEMBL document CHEMBL4145597, “BMS-986163, a Negative Allosteric Modulator of GluN2B with Potential Utility in Major Depressive Disorder” (ACS Med Chem Lett, 2018)
≈ marks a conversion by molar mass, not a printed value. Values belong to the molecule of their own block, whether it stands above or below them. Calls of active or inactive are those of the source. No cut-off for these calls is given here.

Legend:
[1] = Plasma concentration in CD-1 mouse at 0.1 to 1 mg/kg, iv; assay type: ADME, organism-based; conditions: in vivo
[2] = target: Voltage-gated inwardly rectifying potassium channel KCNH2 (Homo sapiens, UniProt Q12809); test: Inhibition of human ERG expressed in HEK293 cells assessed as reduction in peak tail current after 2 to 5 mins by patch clamp based electrophysiology assay; assay type: cell-based
Mus musculus = test: Ex vivo receptor occupancy at GluN2B receptor in CD-1 mouse forebrain membranes assessed as reduction in [3H]Ro 25-6981 receptor labeling at 1 mg/kg, iv incubated for 5 mins by topcount micro scintillation counting method; assay type: functional
Rhesus monkey [3] = test: Toxicity in monkey at 3.6 to 36 mg/kg, iv administered as single dose; assay type: organism-based, Macaca mulatta; conditions: in vivo
Rattus norvegicus [4] = test: Toxicity in rat assessed as histopathological observations at 10 to 100 mg/kg/day administered iv; assay type: organism-based; conditions: in vivo
Rattus norvegicus [5] = test: Toxicity in rat assessed as clinical pathological observations at 10 to 100 mg/kg/day administered iv; assay type: organism-based; conditions: in vivo
[6] = Stability of the compound at 50 degC up to 4 weeks using solid state compound; assay type: physicochemical; conditions: 672 h
[7] = Aqueous solubility of the compound at pH 7.4; assay type: physicochemical; conditions: aqueous medium
[8] = Stability of the compound in aqueous solution at 25 degC up to 90 days; assay type: physicochemical; conditions: buffer, 2160 h
Rhesus monkey [9] = test: Cmax in monkey at 36 mg/kg, iv assessed as BMS-986169 level in plasma; assay type: ADME, organism-based, Macaca mulatta; set-up: dose 36 mg/kg, route intravenous; conditions: in vivo
[10] = target: Glutamate receptor ionotropic, NMDA 2C (Homo sapiens) (UniProt Q14957); test: Negative allosteric modulation of human GluN2C receptor expressed in Xenopus laevis oocytes assessed as inhibition of glutamate/glycine-induced channel current at 3 uM after 10 to 15 mins by two electrode voltage clamp based electrophysiology assay; assay type: cell-based
[11] = target: Glutamate receptor ionotropic, NMDA 2D (Homo sapiens) (UniProt O15399); test: Negative allosteric modulation of human GluN2D receptor expressed in Xenopus laevis oocytes assessed as inhibition of glutamate/glycine-induced channel current at 3 uM after 10 to 15 mins by two electrode voltage clamp based electrophysiology assay; assay type: cell-based
[12] = target: Glutamate receptor ionotropic, NMDA 2B (Homo sapiens, UniProt Q13224); test: Negative allosteric modulation of human GluN2B receptor expressed in Xenopus laevis oocytes assessed as inhibition of glutamate/glycine-induced channel current after 15 to 20 mins by two electrode voltage clamp based electrophysiology assay; assay type: cell-based
[13] = target: Glutamate receptor ionotropic, NMDA 2A (Homo sapiens) (UniProt Q12879); test: Negative allosteric modulation of human GluN2A receptor expressed in Xenopus laevis oocytes assessed as inhibition of glutamate/glycine-induced channel current at 3 uM after 10 to 15 mins by two electrode voltage clamp based electrophysiology assay; assay type: cell-based
Chain of Glutamate receptor ionotropic, NMDA 2A (Homo sapiens) (Q12879 23-1464 limits assumed): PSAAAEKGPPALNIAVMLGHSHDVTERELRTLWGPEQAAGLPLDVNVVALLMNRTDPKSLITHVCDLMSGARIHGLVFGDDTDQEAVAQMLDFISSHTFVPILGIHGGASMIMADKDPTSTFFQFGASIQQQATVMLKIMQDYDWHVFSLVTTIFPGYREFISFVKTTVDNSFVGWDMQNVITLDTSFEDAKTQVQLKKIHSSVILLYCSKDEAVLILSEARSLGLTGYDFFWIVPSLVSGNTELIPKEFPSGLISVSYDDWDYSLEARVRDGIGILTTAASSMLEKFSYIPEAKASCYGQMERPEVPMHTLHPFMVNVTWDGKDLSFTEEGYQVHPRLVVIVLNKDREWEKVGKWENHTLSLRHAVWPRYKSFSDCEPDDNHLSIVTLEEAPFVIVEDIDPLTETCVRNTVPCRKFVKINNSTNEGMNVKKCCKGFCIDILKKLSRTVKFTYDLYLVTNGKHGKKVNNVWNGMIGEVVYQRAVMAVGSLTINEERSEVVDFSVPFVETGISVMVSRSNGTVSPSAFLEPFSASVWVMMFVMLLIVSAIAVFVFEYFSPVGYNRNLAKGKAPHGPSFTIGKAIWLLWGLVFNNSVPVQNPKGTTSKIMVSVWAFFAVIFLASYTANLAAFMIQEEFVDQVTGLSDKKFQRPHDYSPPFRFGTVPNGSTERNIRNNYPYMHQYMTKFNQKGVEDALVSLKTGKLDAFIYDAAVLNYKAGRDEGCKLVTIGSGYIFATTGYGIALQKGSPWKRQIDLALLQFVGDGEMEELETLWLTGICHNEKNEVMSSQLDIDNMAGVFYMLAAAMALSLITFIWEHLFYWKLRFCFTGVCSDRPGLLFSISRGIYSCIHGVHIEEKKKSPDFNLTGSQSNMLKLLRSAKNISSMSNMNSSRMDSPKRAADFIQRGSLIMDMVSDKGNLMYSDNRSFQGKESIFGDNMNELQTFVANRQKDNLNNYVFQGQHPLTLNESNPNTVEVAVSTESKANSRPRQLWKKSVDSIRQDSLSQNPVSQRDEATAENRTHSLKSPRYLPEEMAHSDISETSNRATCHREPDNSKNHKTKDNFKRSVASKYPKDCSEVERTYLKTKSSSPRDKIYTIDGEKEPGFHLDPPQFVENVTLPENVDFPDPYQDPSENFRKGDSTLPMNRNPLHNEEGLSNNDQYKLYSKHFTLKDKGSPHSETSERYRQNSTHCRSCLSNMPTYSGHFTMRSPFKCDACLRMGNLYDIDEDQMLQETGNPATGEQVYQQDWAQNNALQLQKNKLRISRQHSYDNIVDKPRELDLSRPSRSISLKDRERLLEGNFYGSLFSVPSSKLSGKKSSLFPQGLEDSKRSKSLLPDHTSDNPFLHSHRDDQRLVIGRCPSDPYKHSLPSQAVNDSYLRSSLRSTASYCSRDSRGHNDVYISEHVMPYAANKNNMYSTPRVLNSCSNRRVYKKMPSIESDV

Chain of Glutamate receptor ionotropic, NMDA 2D (Homo sapiens) (O15399 whole entry): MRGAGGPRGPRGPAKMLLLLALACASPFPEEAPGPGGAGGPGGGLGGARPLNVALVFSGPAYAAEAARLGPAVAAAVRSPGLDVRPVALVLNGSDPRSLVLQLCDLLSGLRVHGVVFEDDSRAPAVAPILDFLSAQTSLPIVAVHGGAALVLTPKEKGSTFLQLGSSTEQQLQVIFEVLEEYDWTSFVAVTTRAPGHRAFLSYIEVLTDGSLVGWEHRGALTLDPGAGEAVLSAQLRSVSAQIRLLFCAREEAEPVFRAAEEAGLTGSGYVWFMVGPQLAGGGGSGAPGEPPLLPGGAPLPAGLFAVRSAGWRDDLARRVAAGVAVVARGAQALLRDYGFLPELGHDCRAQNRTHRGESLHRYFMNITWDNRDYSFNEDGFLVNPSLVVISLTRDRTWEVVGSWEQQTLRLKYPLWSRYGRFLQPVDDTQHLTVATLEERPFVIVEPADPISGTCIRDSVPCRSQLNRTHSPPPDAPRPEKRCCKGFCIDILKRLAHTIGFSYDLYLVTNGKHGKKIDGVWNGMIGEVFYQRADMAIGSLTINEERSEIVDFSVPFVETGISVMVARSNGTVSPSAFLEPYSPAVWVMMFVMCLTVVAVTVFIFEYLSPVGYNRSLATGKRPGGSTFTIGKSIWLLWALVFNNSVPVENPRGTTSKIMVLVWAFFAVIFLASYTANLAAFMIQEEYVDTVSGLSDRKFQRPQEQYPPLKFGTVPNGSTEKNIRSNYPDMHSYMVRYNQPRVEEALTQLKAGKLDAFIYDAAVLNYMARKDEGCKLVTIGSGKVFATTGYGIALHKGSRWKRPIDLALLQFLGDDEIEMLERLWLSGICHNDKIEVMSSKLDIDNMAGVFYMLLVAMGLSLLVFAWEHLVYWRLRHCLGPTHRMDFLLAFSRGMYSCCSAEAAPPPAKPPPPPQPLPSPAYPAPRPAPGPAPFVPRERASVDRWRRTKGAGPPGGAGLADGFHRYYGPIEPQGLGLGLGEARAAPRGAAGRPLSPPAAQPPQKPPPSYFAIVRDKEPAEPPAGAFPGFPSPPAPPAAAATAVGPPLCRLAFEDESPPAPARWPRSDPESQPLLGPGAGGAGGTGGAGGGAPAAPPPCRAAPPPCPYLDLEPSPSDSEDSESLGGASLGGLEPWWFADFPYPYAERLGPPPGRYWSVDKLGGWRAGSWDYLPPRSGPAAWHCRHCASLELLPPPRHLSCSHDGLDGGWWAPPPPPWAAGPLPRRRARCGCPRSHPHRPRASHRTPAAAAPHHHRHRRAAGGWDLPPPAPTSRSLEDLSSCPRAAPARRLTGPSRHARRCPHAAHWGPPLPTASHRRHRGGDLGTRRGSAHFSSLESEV
Chain of Voltage-gated inwardly rectifying potassium channel KCNH2 (Q12809 whole entry): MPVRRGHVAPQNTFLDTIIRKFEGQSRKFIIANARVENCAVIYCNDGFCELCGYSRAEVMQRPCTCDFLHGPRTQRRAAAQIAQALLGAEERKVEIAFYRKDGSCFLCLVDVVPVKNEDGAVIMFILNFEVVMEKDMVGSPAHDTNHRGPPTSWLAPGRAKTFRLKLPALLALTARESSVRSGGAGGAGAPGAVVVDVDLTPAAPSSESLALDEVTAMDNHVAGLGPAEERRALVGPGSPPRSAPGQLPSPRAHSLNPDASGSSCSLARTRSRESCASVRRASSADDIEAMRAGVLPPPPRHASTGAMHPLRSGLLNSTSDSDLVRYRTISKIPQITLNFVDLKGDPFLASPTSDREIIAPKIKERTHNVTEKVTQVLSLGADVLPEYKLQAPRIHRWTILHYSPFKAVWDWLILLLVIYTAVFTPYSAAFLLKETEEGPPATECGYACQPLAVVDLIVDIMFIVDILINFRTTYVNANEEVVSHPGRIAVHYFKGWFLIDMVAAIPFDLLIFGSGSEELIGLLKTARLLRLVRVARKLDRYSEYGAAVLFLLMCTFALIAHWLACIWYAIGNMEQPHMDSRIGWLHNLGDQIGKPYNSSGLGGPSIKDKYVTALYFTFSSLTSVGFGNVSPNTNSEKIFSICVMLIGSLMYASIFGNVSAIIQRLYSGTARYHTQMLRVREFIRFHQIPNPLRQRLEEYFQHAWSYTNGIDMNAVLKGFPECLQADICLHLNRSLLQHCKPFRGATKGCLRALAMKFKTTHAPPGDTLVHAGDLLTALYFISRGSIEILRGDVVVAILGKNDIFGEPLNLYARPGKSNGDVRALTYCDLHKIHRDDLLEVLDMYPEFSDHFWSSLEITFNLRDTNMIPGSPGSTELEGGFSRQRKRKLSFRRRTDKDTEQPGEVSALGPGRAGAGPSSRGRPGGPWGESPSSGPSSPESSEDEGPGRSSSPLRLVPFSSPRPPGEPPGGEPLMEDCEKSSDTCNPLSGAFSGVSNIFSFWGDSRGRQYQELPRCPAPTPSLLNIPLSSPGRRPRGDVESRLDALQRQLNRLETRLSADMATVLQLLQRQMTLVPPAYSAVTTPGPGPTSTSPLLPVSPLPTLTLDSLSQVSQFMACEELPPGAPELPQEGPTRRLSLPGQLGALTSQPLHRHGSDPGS

concentration [1]: 0.22 µM
Compound: Cc1ccc(CN2CC[C@@H](N3CCC(c4ccc(O)cc4)CC3)C2=O)cc1
IC50 [2]: 400 nM
Occ (Mus musculus): 92%

Compound: Cc1ccc(CN2CC[C@@H](N3CC[C@@H](c4ccc(OP(=O)(O)O)cc4)[C@H](F)C3)C2=O)cc1
Activity (Rhesus monkey [3]): Non-Toxic
Activity (Rattus norvegicus [4]): Non-Toxic
Activity (Rattus norvegicus [5]): Non-Toxic
Stability [6]: Stable
solubility [7]: 19.9 mg/mL (≈ 43 mM)
Stability [8]: Stable
Cmax (Rhesus monkey [9]): 19 µM

inhibition [10]: inactive
inhibition [11]: inactive
inhibition [12]: inactive
inhibition [13]: inactive
Compound: O=C(O)c1ccc(CN2CC[C@@H](N3CC[C@@H](c4ccc(O)cc4)[C@H](F)C3)C2=O)cc1
